From US6737383B1, “Herbicidal oxadiazolidines” (priority 1999, dated 2004)

Assays:
bedstraw = test: Test B pre/postemergence bedstraw; type: in vivo, Galium aparine
From the text: (§1) Seeds of bedstraw (Galium aparine), blackgrass (Alopecurus myosuroides), surinam grass (Brachiaria decumbens), cocklebur (Xanthium strumarium), corn (Zea mays), crabgrass (Digitaria sanguinalis), giant foxtail (Setaria faberii), morningglory (Ipomoea hederacea), pigweed (Amaranthus retroflexus), rape (Brassica napus), soybean (Glycine max), sugar beet (Beta vulgaris), velvetleaf (Abutilon theophrasti), wheat (Triticum aestivum), wild oat (Avena fatua) and purple nutsedge (Cyperus rotundus) tubers were planted and treated preemnergence with test chemicals formulated in a non-phytotoxic solvent mixture which included a surfactant.
(§2) At the same time, these crop and weed species were also treated with postemergence applications of test chemicals formulated in the same manner. Plants ranged in height from 2 to 18 cm (1- to 4-leaf stage) for postemergence treatments. Plant species in the flood test consisted of rice (Oryza sativa), smallflower flatsedge (Cyperus difformis), duck salad (Heteranthera limosa) and bamyardgrass (Echinochloa crus-galli) grown to the 2-leaf stage for testing. Treated plants and controls were maintained in a greenhouse for twelve to sixteen days, after which all species were compared to controls and visually evaluated. Plant response ratings, summarized in Table B, are based on a scale of 0 to 10 where 0 is no effect and 10 is complete control. A dash (−) response means no test result.

blackgrass = test: Test B pre/postemergence blackgrass; type: in vivo, Alopecurus myosuroides
From the text: as §1, §2

surinam grass = test: Test B pre/postemergence surinam grass; type: in vivo, Brachiaria decumbens
From the text: as §1, §2

cocklebur = test: Test B pre/postemergence cocklebur; type: in vivo, Xanthium strumarium
From the text: as §1, §2

corn = test: Test B pre/postemergence corn; type: in vivo, Zea mays
From the text: as §1, §2

crabgrass = test: Test B pre/postemergence crabgrass; type: in vivo, Digitaria sanguinalis
From the text: as §1, §2

giant foxtail = test: Test B pre/postemergence giant foxtail; type: in vivo, Setaria faberii
From the text: as §1, §2

morningglory = test: Test B pre/postemergence morningglory; type: in vivo, Ipomoea hederacea
From the text: as §1, §2

pigweed = test: Test B pre/postemergence pigweed; type: in vivo, Amaranthus retroflexus
From the text: as §1, §2

rape = test: Test B pre/postemergence rape; type: in vivo, Brassica napus
From the text: as §1, §2

soybean = test: Test B pre/postemergence soybean; type: in vivo, Glycine max
From the text: as §1, §2

sugar beet = test: Test B pre/postemergence sugar beet; type: in vivo, Beta vulgaris
From the text: as §1, §2

velvetleaf = test: Test B pre/postemergence velvetleaf; type: in vivo, Abutilon theophrasti
From the text: as §1, §2

wheat = test: Test B pre/postemergence wheat; type: in vivo, Triticum aestivum
From the text: as §1, §2

wild oat = test: Test B pre/postemergence wild oat; type: in vivo, Avena fatua
From the text: as §1, §2

purple nutsedge = test: Test B pre/postemergence purple nutsedge; type: in vivo, Cyperus rotundus
From the text: as §1, §2

[1] = Postemergence, Rate 500 g/ha, scale 0 to 10, 0 is no effect, 10 is complete control
[2] = Preemergence, Rate 62 g/ha, scale of 0 to 10 where 0 is no effect and 10 is complete control
[3] = Preemergence, Rate 125 g/ha, scale 0 to 10, 0 is no effect, 10 is complete control
[4] = Postemergence, Rate 62 g/ha, scale of 0 to 10, 0 is no effect, 10 is complete control
[5] = Postemergence, Rate 125 g/ha, scale 0 to 10, 0 is no effect, 10 is complete control
[6] = Rate 250 g/ha, Postemergence, scale of 0 to 10 where 0 is no effect and 10 is complete control
[7] = Preemergence, Rate 500 g/ha, scale of 0 to 10 where 0 is no effect and 10 is complete control

CC(C)N(C(=O)n1oc(=O)n(CCCC(F)(F)F)c1=O)c1ccc(F)cc1F [Compound 526]
9: Plant response rating, Bedstraw (bedstraw; [1]) | Blackgrass plant response rating (blackgrass; [3]) | Plant response rating, Blackgrass (blackgrass; [6]) | B. signalgrass plant response rating (surinam grass; [3]) | B. signalgrass plant response rating (0 to 10 scale, 0 is no effect, 10 is complete control) (surinam grass; Preemergence, Rate 250 g/ha) | Crabgrass plant response rating (crabgrass; [5]) | Plant response rating, Crabgrass (crabgrass; [2]) | Plant response rating, Crabgrass (crabgrass; [6]) | Plant response rating, Giant foxtail (giant foxtail; [2]) | Rape plant response rating (0 to 10 scale) (rape; Preemergence, Rate 250 g/ha) | Wild oats plant response rating (wild oat; [3]) | Wild oats plant response rating (0 to 10 scale) (wild oat; Preemergence, Rate 250 g/ha)
3: Blackgrass plant response rating (blackgrass; [4]) | Giant foxtail plant response rating (giant foxtail; [4]) | Giant foxtail plant response rating (giant foxtail; [5]) | Soybean plant response rating (soybean; [5]) | Plant response rating, Soybean (soybean; [1]) | Plant response rating, Soybean (soybean; [6]) | Velvetleaf plant response rating (velvetleaf; [7])
8: Plant response rating, B. signalgrass (surinam grass; [2]) | Plant response rating, Giant foxtail (giant foxtail; [1]) | Sugarbeets plant response rating (0 to 10 scale) (sugar beet; Preemergence, Rate 250 g/ha) | Sugarbeets plant response rating (sugar beet; [7]) | Plant response rating, Velvetleaf (velvetleaf; [1]) | Wheat plant response rating (0 to 10 scale) (wheat; Preemergence, Rate 250 g/ha)
0: Plant response rating, Bedstraw (bedstraw; [2]) | Bedstraw plant response rating (bedstraw; [3]) | B. signalgrass plant response rating (surinam grass; [4]) | Cocklebur plant response rating (cocklebur; [4]) | Cocklebur plant response rating (cocklebur; [5]) | Plant response rating, Cocklebur (cocklebur; [2]) | Cocklebur plant response rating (cocklebur; [3]) | Cocklebur plant response rating (0 to 10 scale) (cocklebur; Preemergence, Rate 250 g/ha) | Cocklebur plant response rating (cocklebur; [7]) | Plant response rating, Cocklebur (cocklebur; [6]) | Corn plant response rating (corn; [4]) | Plant response rating, Corn (corn; [2]) | Corn plant response rating (corn; [3]) | Corn plant response rating (0 to 10 scale) (corn; Preemergence, Rate 250 g/ha) | Plant response rating, Morningglory (morningglory; [2]) | Morningglory plant response rating (morningglory; [3]) | Morningglory plant response rating (0 to 10 scale) (morningglory; Preemergence, Rate 250 g/ha) | Redroot pigweed plant response rating (pigweed; [4]) | Redroot pigweed plant response rating (pigweed; [5]) | Rape plant response rating (rape; [4]) | Plant response rating, Soybean (soybean; [2]) | Soybean plant response rating (soybean; [3]) | Soybean plant response rating (0 to 10 scale) (soybean; Preemergence, Rate 250 g/ha) | Soybean plant response rating (soybean; [7]) | Sugarbeets plant response rating (sugar beet; [4]) | Sugarbeets plant response rating (sugar beet; [5]) | Plant response rating, Sugarbeets (sugar beet; [1]) | Plant response rating, Sugarbeets (sugar beet; [6]) | Plant response rating, Velvetleaf (velvetleaf; [2]) | Wheat plant response rating (wheat; [4]) | Wheat plant response rating (wheat; [5]) | Plant response rating, Wheat (wheat; [1]) | Plant response rating, Wheat (wheat; [2]) | Wheat plant response rating (wheat; [3]) | Plant response rating, Wheat (wheat; [6]) | Wild oats plant response rating (wild oat; [4]) | Wild oats plant response rating (wild oat; [5]) | Plant response rating, Wild oats (wild oat; [1]) | Plant response rating, Wild oats (wild oat; [6]) | Nutsedge plant response rating (purple nutsedge; [4]) | Nutsedge plant response rating (purple nutsedge; [5]) | Plant response rating, Nutsedge (purple nutsedge; [2]) | Nutsedge plant response rating (purple nutsedge; [3]) | Nutsedge plant response rating (0 to 10 scale) (purple nutsedge; Preemergence, Rate 250 g/ha) | Nutsedge plant response rating (purple nutsedge; [7]) | Plant response rating, Nutsedge (purple nutsedge; [6])
4: Plant response rating, B. signalgrass (surinam grass; [6]) | Plant response rating, Redroot pigweed (pigweed; [1]) | Plant response rating, Redroot pigweed (pigweed; [2]) | Redroot pigweed plant response rating (pigweed; [3]) | Redroot pigweed plant response rating (0 to 10 scale) (pigweed; Preemergence, Rate 250 g/ha) | Rape plant response rating (rape; [5]) | Plant response rating, Rape (rape; [1]) | Plant response rating, Rape (rape; [2]) | Rape plant response rating (rape; [3]) | Plant response rating, Sugarbeets (sugar beet; [2]) | Velvetleaf plant response rating (velvetleaf; [4]) | Velvetleaf plant response rating (velvetleaf; [5])
2: B. signalgrass plant response rating (surinam grass; [5]) | Plant response rating, Cocklebur (cocklebur; [1]) | Corn plant response rating (corn; [5]) | Plant response rating, Corn (corn; [1]) | Corn plant response rating (corn; [7]) | Plant response rating, Corn (corn; [6]) | Morningglory plant response rating (morningglory; [7]) | Plant response rating, Redroot pigweed (pigweed; [6]) | Soybean plant response rating (soybean; [4]) | Velvetleaf plant response rating (velvetleaf; [3]) | Velvetleaf plant response rating (0 to 10 scale) (velvetleaf; Preemergence, Rate 250 g/ha) | Plant response rating, Nutsedge (purple nutsedge; [1])
10: Blackgrass plant response rating (0 to 10 scale) (blackgrass; Preemergence, Rate 250 g/ha) | Plant response rating, Crabgrass (crabgrass; [1]) | Crabgrass plant response rating (crabgrass; [3]) | Crabgrass plant response rating (0 to 10 scale) (crabgrass; Preemergence, Rate 250 g/ha) | Crabgrass plant response rating (crabgrass; [7]) | Giant foxtail plant response rating (giant foxtail; [3]) | Giant foxtail plant response rating (0 to 10 scale) (giant foxtail; Preemergence, Rate 250 g/ha) | Giant foxtail plant response rating (giant foxtail; [7])
6: Blackgrass plant response rating (blackgrass; [5]) | Plant response rating, B. signalgrass (surinam grass; [1]) | Crabgrass plant response rating (crabgrass; [4]) | Morningglory plant response rating (morningglory; [4]) | Morningglory plant response rating (morningglory; [5]) | Plant response rating, Morningglory (morningglory; [6]) | Sugarbeets plant response rating (sugar beet; [3])
7: Bedstraw plant response rating (0 to 10 scale) (bedstraw; Preemergence, Rate 250 g/ha) | Plant response rating, Blackgrass (blackgrass; [1]) | Plant response rating, Blackgrass (blackgrass; [2]) | Plant response rating, Giant foxtail (giant foxtail; [6]) | Plant response rating, Morningglory (morningglory; [1]) | Plant response rating, Velvetleaf (velvetleaf; [6]) | Plant response rating, Wild oats (wild oat; [2])
